Our source for the EC50 values is BindingDB's records for doi:10.1021/jm300601d (Boehringer Ingelheim Pharmaceuticals, 2012).

The experiment is described as follows: Inhibition of NHE1 in human platelet rich plasma assessed as reduction of propionate medium induced platelet swelling measured every 6 secs for 5 mins.
One may read the EC50 as the concentration at which the effect is half-maximal. As to `CN(C)C(=O)c1ccc(C(=O)N2CCC(c3ccc(C(=O)NC(=N)N)cc3C(F)(F)F)CC2)cc1`, the EC50 worked out at 77 nM. As for `CNC(=O)c1ccc(C(=O)N2CCC(c3ccc(C(=O)NC(=N)N)cc3C(F)(F)F)CC2)cc1`, the EC50 worked out at 214 nM. Under `CS(=O)(=O)c1cccc(C(=O)N2CCC(c3ccc(C(=O)NC(=N)N)cc3C(F)(F)F)CC2)c1` stands 50 nM; under `N=C(N)NC(=O)c1ccc(C2CCN(C(=O)c3ccncc3)CC2)c(C(F)(F)F)c1`, 70 nM; under `N=C(N)NC(=O)c1ccc(C2CCN(C(=O)c3ccc(S(N)(=O)=O)cc3)CC2)c(C(F)(F)F)c1`, 23 nM. Under `CC(=O)N1CCC(c2cc(C)c(C(=O)NC(=N)N)cc2S(C)(=O)=O)CC1` stands 56 nM; under `CCCC(=O)N1CCC(c2ccc(C(=O)NC(=N)N)cc2C(F)(F)F)CC1`, 201 nM.

As for `N=C(N)NC(=O)c1ccc(C2CCN(C(=O)c3ccc(=O)[nH]c3)CC2)c(C(F)(F)F)c1`, the EC50 worked out at 25 nM. For `N#Cc1cccc(C(=O)N2CCC(c3ccc(C(=O)NC(=N)N)cc3C(F)(F)F)CC2)c1`, the concentration for a half-maximal effect (EC50) worked out at 111 nM.

`N#Cc1ccccc1C(=O)N1CCC(c2ccc(C(=O)NC(=N)N)cc2C(F)(F)F)CC1`: the EC50 is 200 nM. Under `N=C(N)NC(=O)c1ccc(C2CCN(C(=O)c3ccccn3)CC2)c(C(F)(F)F)c1` stands 79 nM; under `CC(C)CC(=O)N1CCC(c2ccc(C(=O)NC(=N)N)cc2C(F)(F)F)CC1`, 221 nM. Consider `N=C(N)NC(=O)c1ccc(C2CCN(C(=O)c3ccc(C(N)=O)cc3)CC2)c(C(F)(F)F)c1`, for which the concentration giving a half-maximal response (EC50) came to 36 nM. The value for `CCC(=O)N1CCC(c2ccc(C(=O)NC(=N)N)cc2C(F)(F)F)CC1` was 31 nM; that for `CC(C)(C)C(=O)N1CCC(c2ccc(C(=O)NC(=N)N)cc2C(F)(F)F)CC1` was 127 nM. Take `CC(C)C(=O)N1CCC(c2ccc(C(=O)NC(=N)N)cc2C(F)(F)F)CC1`: the EC50 came to 79 nM. `N=C(N)NC(=O)c1ccc(N2CCN(C(=O)c3ccc[nH]3)CC2)c(C(F)(F)F)c1` [SABIPORIDE]: the EC50 is 172 nM.

For `N=C(N)NC(=O)c1ccc(N2CCCC(NC(=O)c3ccc[nH]3)C2)c(C(F)(F)F)c1` (centres undefined), the concentration for a half-maximal effect (EC50) is 3480 nM. The value for `CS(=O)(=O)c1ccc(C(=O)N2CCC(c3ccc(C(=O)NC(=N)N)cc3C(F)(F)F)CC2)cc1` was 93 nM; that for `COc1ccc(C(=O)N2CCC(c3ccc(C(=O)NC(=N)N)cc3C(F)(F)F)CC2)cc1` was 498 nM; that for `CC(=O)N1CCC(c2cc(C)c(C(=O)NC(=N)N)cc2C(F)(F)F)CC1` was 28 nM. Regarding `N=C(N)NC(=O)c1ccc(C2CCN(C(=O)c3ccc(-n4ccnc4)cc3)CC2)c(C(F)(F)F)c1`, the EC50 worked out at 169 nM. In the case of `Cc1cc(C(=O)N2CCC(c3ccc(C(=O)NC(=N)N)cc3C(F)(F)F)CC2)nn1C`, the EC50 came to 115 nM. The value for `Cn1ccnc1C(=O)N1CCC(c2ccc(C(=O)NC(=N)N)cc2C(F)(F)F)CC1` was 111 nM. Take `N=C(N)NC(=O)c1ccc(C2CCN(C(=O)c3ccccc3)CC2)c(C(F)(F)F)c1`: the EC50 is 109 nM. The value for `N=C(N)NC(=O)c1ccc(C2CCN(C(=O)c3ccc(C(F)(F)F)cc3)CC2)c(C(F)(F)F)c1` was 539 nM; that for `COCC(=O)N1CCC(c2ccc(C(=O)NC(=N)N)cc2C(F)(F)F)CC1` was 48 nM; that for `N=C(N)NC(=O)c1ccc(C2CCN(C(=O)c3ccc(Cl)cc3)CC2)c(C(F)(F)F)c1` was 1130 nM. Under `CS(=O)(=O)c1ccccc1C(=O)N1CCC(c2ccc(C(=O)NC(=N)N)cc2C(F)(F)F)CC1` stands 269 nM. Under `N=C(N)NC(=O)c1ccc(N2CCC(NC(=O)c3ccc[nH]3)C2)c(C(F)(F)F)c1` (centres undefined) stands 1590 nM; under `N=C(N)NC(=O)c1ccc(C2CCN(C(=O)c3ccc(F)cc3)CC2)c(C(F)(F)F)c1`, 184 nM; under `N#Cc1ccc(C(=O)N2CCC(c3ccc(C(=O)NC(=N)N)cc3C(F)(F)F)CC2)cc1`, 152 nM. In the case of `N=C(N)NC(=O)c1ccc(C2CCN(C(=O)c3ccc(-c4cnco4)cc3)CC2)c(C(F)(F)F)c1`, the EC50 stood at 368 nM. Regarding `Cn1cncc1C(=O)N1CCC(c2ccc(C(=O)NC(=N)N)cc2C(F)(F)F)CC1`, the EC50 came to 62 nM. As for `N=C(N)NC(=O)c1ccc(C2CCN(C(=O)C3CCCC3)CC2)c(C(F)(F)F)c1`, the 50% effective concentration (EC50) was 416 nM. In the case of `N=C(N)NC(=O)c1ccc(C2CCN(C(=O)C3CC3)CC2)c(C(F)(F)F)c1`, the EC50 was determined as 50 nM.

Regarding `N=C(N)NC(=O)c1ccc(C2CCN(C(=O)c3cccnc3)CC2)c(C(F)(F)F)c1`, the EC50 amounted to 32 nM. The value for `N=C(N)NC(=O)c1ccc(C2CCN(C(=O)c3cccc(Cl)c3)CC2)c(C(F)(F)F)c1` was 989 nM; that for `CN(C)S(=O)(=O)c1ccc(C(=O)N2CCC(c3ccc(C(=O)NC(=N)N)cc3C(F)(F)F)CC2)cc1` was 241 nM; that for `N=C(N)NC(=O)c1ccc(C2CCN(C(=O)c3ccc(O)cc3)CC2)c(C(F)(F)F)c1` was 138 nM. Take `CCC(=O)N1CCC(c2ccc(C(=O)NC(=N)N)cc2S(C)(=O)=O)CC1`: the EC50 worked out at 266 nM.

`CCC(=O)N1CCC(c2cc(C)c(C(=O)NC(=N)N)cc2S(C)(=O)=O)CC1`: the EC50 is 88 nM. Under `COc1cc(C2CCN(C(C)=O)CC2)c(C(F)(F)F)cc1C(=O)NC(=N)N` stands 432 nM.

On to `CC(=O)N1CCC(c2ccc(C(=O)NC(=N)N)cc2S(C)(=O)=O)CC1`, for which the EC50 is 189 nM.

For `N=C(N)NC(=O)c1ccc(C2CCN(C(=O)c3cccc(-c4cnco4)c3)CC2)c(C(F)(F)F)c1`, the EC50 came out at 353 nM.

Regarding `N=C(N)NC(=O)c1ccc(C2CCN(C(=O)c3ccccc3Cl)CC2)c(C(F)(F)F)c1`, the concentration giving a half-maximal response (EC50) turned out to be 495 nM. Under `CNS(=O)(=O)c1ccc(C(=O)N2CCC(c3ccc(C(=O)NC(=N)N)cc3C(F)(F)F)CC2)cc1` stands 88 nM; under `N=C(N)NC(=O)c1ccc(N2CCC(NC(=O)c3ccc[nH]3)CC2)c(C(F)(F)F)c1`, 950 nM; under `N=C(N)NC(=O)c1ccc(C2CCN(C(=O)c3ccc[nH]3)CC2)c(C(F)(F)F)c1`, 241 nM.
